Read-outs that look alike come from different tables or passages of the source.
Target: T1, G protein-coupled receptor 119 (GPR-119) (Mesocricetus auratus, UniProt A0A1U8CD06)
T1 construct: hamster-derived β-cells containing G protein-coupled receptor 119 (GPR-119), HIT-T15 cells; host or cells: HIT-T15 (hamster pancreatic β-cells)
T1 sequence (A0A1U8CD06 1-334): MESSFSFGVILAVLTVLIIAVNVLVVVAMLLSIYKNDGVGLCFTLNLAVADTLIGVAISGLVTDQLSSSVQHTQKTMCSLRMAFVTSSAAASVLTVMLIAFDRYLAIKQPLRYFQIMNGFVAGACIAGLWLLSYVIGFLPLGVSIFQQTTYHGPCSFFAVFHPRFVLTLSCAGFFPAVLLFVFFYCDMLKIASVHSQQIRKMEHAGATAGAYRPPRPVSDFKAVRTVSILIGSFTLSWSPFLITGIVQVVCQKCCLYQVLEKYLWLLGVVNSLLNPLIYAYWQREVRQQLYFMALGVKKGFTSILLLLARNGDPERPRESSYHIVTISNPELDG
Test: Evaluation of cAMP activity in HIT-T15 cells (HTRF cAMP dynamic kit)
Type: cell-based, hamster
Settings: cAMP activation
Experimental: To check whether the cyclohexene derivatives according to the present invention activate cyclic adenosine monophosphate (cAMP), experiments were carried out, as follows.
The HIT-T15 cells were plated on a 96-well plate at 60,000 cells per well. On the next day of plating, the cells were treated with a varying concentration of each of the example compounds according to the present invention, and incubated at 37° C. for an hour. In this case, each of the treated compounds was used at six concentrations, ranging from […], to treat the cells.
The cyclic adenosine monophosphate (cAMP) activity was measured according to the manufacturer's instruction using a cAMP dynamic kit commercially available from Cis Bio Inc. (Bedford, Mass.). The cells were lysed, and a level of cAMP was determined by a competitive immunoassay using D2-labeled cAMP and a cryptate-labeled anti-cAMP antibody. Fluorescence was read in Flex Station (Molecular Devices). […] Unlabeled cAMP in the cell lysate competed with the D2-labeled cAMP against the cryptate-labeled antibody. Since a decrease in the measured intensity of the FRET signals represents a level of cAMP in the cells, the cAMP activities of the compounds are calculated as a change in FRET signals by adjusting an amount of dimethyl sulfoxide (DMSO).

[1] = 1 h at 37° C., six concentrations, read-out: EC50

EC50 [1]	EC50 (read-out: EC50 value)	Compound
40 nM	≤ 50 nM	CC(C)(C)OC(=O)N1CCC(COc2ccc(C3=CCC(C(=O)NC4CC4)CC3)cc2)CC1 (stereo not shown) [Example 2, tert-butyl 4-((4-(4-(cyclopropylcarbamoyl)cyclohex-1-enyl)phenoxy)methyl)piperidine-1-carboxylate]
34 nM	≤ 50 nM	CC(C)(C)OC(=O)N1CCC(COc2ccc(C3=CCC(C(=O)NCC(F)F)CC3)cc2)CC1 (stereo not shown) [Example 3, tert-butyl 4-((4-(4-(2,2-difluoroethylcarbamoyl)cyclohex-1-enyl)phenoxy)methyl)piperidine-1-carboxylate]
150 nM	–	CC(C)(C)OC(=O)N1CCC(COc2ccc(C3=CCC(C(=O)NC[C@@H](O)CO)CC3)cc2)CC1 (stereo partly drawn) [Example 4, tert-butyl 4-((4-(4-((R)-2,3-dihydroxypropylcarbamoyl)cyclohex-1-enyl)phenoxy)methyl)piperidine-1-carboxylate]
29 nM	≤ 50 nM	CC(C)(C)OC(=O)N1CCC(COc2ccc(C3=CCC(C(=O)N4CC[C@@H](O)C4)CC3)cc2)CC1 (stereo partly drawn) [Example 5, tert-butyl 4-((4-(4-((R)-3-hydroxypyrrolidine-1-carbonyl)cyclohex-1-enyl)phenoxy)methyl)piperidine-1-carboxylate]
38 nM	≤ 50 nM	CN(CCCO)C(=O)C1CC=C(c2ccc(OCC3CCN(C(=O)OC(C)(C)C)CC3)cc2)CC1 (stereo not shown) [Example 6, tert-butyl 4-((4-(4-((3-hydroxypropyl)(methyl)carbamoyl)cyclohex-1-enyl)phenoxy)methyl)piperidine-1-carboxylate]
13 nM	≤ 50 nM	CC(C)(C)OC(=O)N1CCC(COc2ccc(C3=CCC(C(=O)N4CCOCC4)CC3)cc2)CC1 (stereo not shown) [Example 7, tert-butyl 4-((4-(4-(morpholine-4-carbonyl)cyclohex-1-enyl)phenoxy)methyl)piperidine-1-carboxylate]
90 nM	–	CCc1cnc(N2CCC(COc3ccc(C4=CCC(C(=O)N[C@H](C)CO)CC4)cc3)CC2)nc1 (stereo partly drawn) [Example 8, 4-(4-((1-(5-ethylpyrimidin-2-yl)piperidin-4-yl)methoxy)phenyl)-N-((R)-1-hydroxypropan-2-yl)cyclohex-3-enecarboxamide]
75 nM	–	CCc1cnc(N2CCC(COc3ccc(C4=CCC(C(=O)NCCCO)CC4)cc3)CC2)nc1 (stereo not shown) [Example 9, 4-(4-((1-(5-ethylpyrimidin-2-yl)piperidin-4-yl)methoxy)phenyl)-N-(3-hydroxypropyl)cyclohex-3-enecarboxamide]
500 nM	–	CC(C)(C)OC(=O)N1CCC(COc2ccc(C3=CCC(C(=O)NC[C@@H](O)CO)CC3)nc2)CC1 (stereo partly drawn) [Example 10, tert-butyl 4-((6-(4-((R)-2,3-dihydroxypropylcarbamoyl)cyclohex-1-enyl)pyridin-3-yloxy)methyl)piperidine-1-carboxylate]
110 nM	–	C[C@@H](CO)NC(=O)C1CC=C(c2ccc(OCC3CCN(C(=O)OC(C)(C)C)CC3)cn2)CC1 (stereo partly drawn) [Example 11, tert-butyl 4-((6-(4-((S)-1-hydroxypropan-2-ylcarbamoyl)cyclohex-1-enyl)pyridin-3-yloxy)methyl)piperidine-1-carboxylate]
80 nM	–	CCc1cnc(N2CCC(COc3ccc(C4=CCC(C(=O)NC[C@@H](O)CO)CC4)cc3)CC2)nc1 (stereo partly drawn) [Example 12, N-((R)-2,3-dihydroxypropyl)-4-(4-((1-(5-ethylpyrimidin-2-yl)piperidin-4-yl)methoxy)phenyl)cyclohex-3-enecarboxamide]
13 nM	≤ 50 nM	CCc1cnc(N2CCC(COc3ccc(C4=CCC(C(=O)N5CCOCC5)CC4)cc3)CC2)nc1 (stereo not shown) [Example 13, (4-(4-((1-(5-ethylpyrimidin-2-yl)piperidin-4-yl)methoxy)phenyl)cyclohex-3-enyl)(morpholino)methanone]
370 nM	–	CCc1cnc(N2CCC(COc3ccc(C4=CCC(C(=O)NC(CO)CO)CC4)cc3)CC2)nc1 (stereo not shown) [Example 15, N-(1,3-dihydroxypropan-2-yl)-4-(4-((1-(5-ethylpyrimidin-2-yl)piperidin-4-yl)methoxy)phenyl)cyclohex-3-enecarboxamide]

From US9758527B2, “Cyclohexene derivative, preparation method therefor, and pharmaceutical composition for preventing or treating metabolic diseases, containing same as active ingredient” (HYUNDAI PHARM CO., LTD., priority 2014, dated 2017)
